Measurements: patent US10287301B2 (Achillion Pharmaceuticals, Inc., priority 2015, dated 2019)

Each molecule was assayed against Human Factor D (Homo sapiens (Human), UniProt P00746) (assay: Human Factor D Assay). Details: not given.
Sequence of Human Factor D (P00746 26-253): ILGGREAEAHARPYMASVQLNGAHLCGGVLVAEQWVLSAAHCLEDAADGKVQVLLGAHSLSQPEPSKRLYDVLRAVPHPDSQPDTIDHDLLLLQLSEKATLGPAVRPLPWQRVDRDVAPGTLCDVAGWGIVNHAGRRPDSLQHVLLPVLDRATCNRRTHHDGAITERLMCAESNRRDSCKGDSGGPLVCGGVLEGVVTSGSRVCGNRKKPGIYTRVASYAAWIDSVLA
Type: biochemical
Procedure, shortened: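 First, compound at various concentrations is mixed with 80 nM (final) human serum Factor D in 50 mM Tris, 1M NaCl, pH 7.5 for 5 min at room temperature.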
In the case of NC(=O)c1nn(CC(=O)N2C[C@H](F)C[C@H]2C(=O)Nc2cccnc2)c2ccc(-c3ccnnc3)cc12 [Compound 47, 1-(2-((2S,4R)-4-fluoro-2-(pyridin-3-ylcarbamoyl)pyrrolidin-1-yl)-2-oxoethyl)-5-(pyridazin-4-yl)-1H-indazole-3-carboxamide], the IC50 is reported as greater than 10 µM.
CC(=O)c1nn(CC(=O)N2C[C@H](F)C[C@H]2C(=O)Nc2cccc(Br)[n+]2[O-])c2ccc(-c3cnc(C)nc3)cc12 [Compound 743, 2-((2S,4R)-1-(2-(3-Acetyl-5-(2-methylpyrimidin-5-yl)-1H-indazol-1-yl)acetyl)-4-fluoropyrrolidine-2-carboxamido)-6-bromopyridine 1-oxide] gave an IC50 of 1 to 10 µM.

Same assay, conditions: Human Factor D 80 nM, substrate Z-L-Lys-SBzl; read-out: IC50
CC(=O)c1cn(CC(=O)N2[C@@H]3C[C@@H]3C[C@H]2C(=O)Nc2cccc(Br)n2)c2ccc(-c3cnc(C)nc3)cc12 [Compound 132, (1R,3S,5R)-2-(2-(3-acetyl-5-(2-methylpyrimidin-5-yl)-1H-indol-1-yl)acetyl)-N-(6-bromopyridin-2-yl)-2-azabicyclo[3.1.0] hexane-3-carboxamide] showed an IC50 of less than 1 µM.
With NCc1ccc(NC(=O)[C@@H]2C[C@@H](F)CN2C(=O)Cn2nc(C(N)=O)c3cc(-c4ccnnc4)ccc32)cc1 [Compound 70, 1-(2-((2S,4R)-2-(4-(aminomethyl)phenylcarbamoyl)-4-fluoropyrrolidin-1-yl)-2-oxoethyl)-5-(pyridazin-4-yl)-1H-indazole-3-carboxamide] the IC50 was greater than 10 µM.
Molecule CN1CC=C(c2ccc3c(c2)c(C(N)=O)nn3CC(=O)N2C[C@H](F)C[C@H]2C(=O)Nc2cccc(Br)n2)CC1 [Compound 22, 1-(2-((2S,4R)-2-(6-bromopyridin-2-ylcarbamoyl)-4-fluoropyrrolidin-1-yl)-2-oxoethyl)-5-(1-methyl-1,2,3,6-tetrahydropyridin-4-yl)-1H-indazole-3-carboxamide] has an IC50 of less than 1 µM.
Work on CC(=O)c1cn(CC(=O)N2C[C@H](F)C[C@H]2C(=O)Nc2ccccc2-n2nccc2C)c2ccc(-c3ccnnc3)cc12 [Compound 72, (2S,4R)-1-(2-(3-acetyl-5-(pyridazin-4-yl)-1H-indol-1-yl)acetyl)-4-fluoro-N-(2-(5-methyl-1H-pyrazol-1-yl)phenyl) pyrrolidine-2-carboxamide] yielded an IC50 greater than 10 µM.
With CC(=O)c1cn(CC(=O)N2C[C@H](F)C[C@H]2C(=O)Nc2cccc(Cl)n2)c2ccc(-c3cnc(C)nc3)cc12 [Compound 137, (2S,4R)-1-(2-(3-acetyl-5-(2-methylpyrimidin-5-yl)-1H-indol-1-yl)acetyl)-N-(6-chloropyridin-2-yl)-4-fluoropyrrolidine-2-carboxamide] the IC50 was less than 1 µM.

Same assay, conditions: Human Factor D assay of Example 8; Table 2; read-out: IC50
Work on CC(=O)c1nn(CC(=O)N2C[C@H](F)C[C@H]2C(=O)Nc2cccc(OC(F)(F)F)c2F)c2ccc(-c3cnc4ccnn4c3)cc12 [Compound 235, (2S,4R)-1-(2-(3-acetyl-5-(pyrazolo[1,5-a]pyrimidin-6-yl)-1H-indazol-1-yl)acetyl)-4-fluoro-N-(2-fluoro-3-(trifluoromethoxy)phenyl)pyrrolidine-2-carboxamide] yielded an IC50 of less than 1 µM.
CC(=O)c1nn(CC(=O)N2C(=O)CC[C@H]2C(=O)Nc2cccc(Br)n2)c2ccc(-c3cnc(C)nc3)cc12 [Compound 271, (S)-1-(2-(3-Acetyl-5-(2-methylpyrimidin-5-yl)-1H-indazol-1-yl)acetyl)-N-(6-bromopyridin-2-yl)-5-oxopyrrolidine-2-carboxamide] showed an IC50 of less than 1 µM.
CC(=O)c1nn(CC(=O)N2CC=C[C@H]2C(=O)Nc2cccc(Br)n2)c2ccc(-c3cnc(C)nc3)cc12 [Compound 294, (S)-1-(2-(3-acetyl-5-(2-methylpyrimidin-5-yl)-1H-indazol-1-yl)acetyl)-N-(6-bromopyridin-2-yl)-2,5-dihydro-1H-pyrrole-2-carboxamide] was tested, and the IC50 was less than 1 µM.
Cc1ncc(-c2cc3c(C(N)=O)nn(CC(=O)N4C[C@H](F)C[C@H]4C(=O)Nc4cccc(Br)n4)c3cn2)cn1 [Compound 278, 1-(2-((2S,4R)-2-(6-bromopyridin-2-ylcarbamoyl)-4-fluoropyrrolidin-1-yl)-2-oxoethyl)-5-(2-methylpyrimidin-5-yl)-1H-pyrazolo[3,4-c]pyridine-3-carboxamide] showed an IC50 of less than 1 µM.
CC(=O)c1nn(CC(=O)N2CC[C@@H](O)[C@H]2C(=O)Nc2cccc(Br)n2)c2ccc(-c3cnc(C)nc3)cc12 [Compound 315, (2S,3R)-1-(2-(3-acetyl-5-(2-methylpyrimidin-5-yl)-1H-indazol-1-yl)acetyl)-N-(6-bromopyridin-2-yl)-3-hydroxypyrrolidine-2-carboxamide] was tested, and the IC50 was less than 1 µM.
With CC(=O)n1cc(NC(=O)N2C[C@H](F)C[C@H]2C(=O)Nc2cccc(-c3ccccc3Cl)c2F)c2ccc(-c3cnc(C)nc3)cc21 [Compound 293] the IC50 was less than 1 µM.

Same assay, conditions: Human Factor D, Table 3; read-out: IC50
CC(=O)n1cc(CC(=O)N2C[C@H](F)C[C@H]2C(=O)Nc2cccc(-c3ccccc3Cl)c2F)c2ccc(-c3cnc(C)nc3)cc21 [Compound 710, (2S,4R)-1-(2-(1-Acetyl-6-(2-methylpyrimidin-5-yl)-1H-indol-3-yl)acetyl)-N-(2′-chloro-2-fluoro-[1,1′-biphenyl]-3-yl)-4-fluoropyrrolidine-2-carboxamide] was tested, and the IC50 was less than 1 µM.
For COC(=O)c1ncc(-c2ccc3c(c2)c(C(C)=O)nn3CC(=O)N2C[C@H](F)C[C@H]2C(=O)Nc2cccc(Br)n2)cn1 [Compound 596, methyl 5-(3-Acetyl-1-(2-((2S,4R)-2-((6-bromopyridin-2-yl)carbamoyl)-4-fluoropyrrolidin-1-yl)-2-oxoethyl)-1H-indazol-5-yl)pyrimidine-2-carboxylate], the IC50 was less than 1 µM.
With CC(=O)c1nn(CC(=O)N2C[C@H](F)C[C@H]2C(=O)Nc2cccc(Br)n2)c2ccc(-c3cnn(-c4ncc(F)cn4)c3)cc12 [Compound 699, (2S,4R)-1-(2-(3-Acetyl-5-(1-(5-fluoropyrimidin-2-yl)-1H-pyrazol-4-yl)-1H-indazol-1-yl)acetyl)-N-(6-bromopyridin-2-yl)-4-fluoropyrrolidine-2-carboxamide] the IC50 was less than 1 µM.
With CC(=O)c1nn(CC(=O)N2C[C@H](F)C[C@H]2C(=O)NC2(C#N)CC2)c2ccc(-c3cnc(C)nc3)cc12 [Compound 739, (2S,4R)-1-(2-(3-acetyl-5-(2-methylpyrimidin-5-yl)-1H-indazol-1-yl)acetyl)-N-(1-cyanocyclopropyl)-4-fluoropyrrolidine-2-carboxamide] the IC50 was less than 1 µM.

Same assay, conditions: Table 3; Human Factor D 80 nM, substrate Z-L-Lys-SBzl; read-out: IC50 (Stars)
CC(=O)c1nn(CC(=O)N2C[C@H](F)C[C@H]2C(=O)Nc2nn(CC(F)(F)F)cc2Cl)c2ccc(-c3cnc(C)nc3)cc12 [Compound 430, (2S,4R)-1-(2-(3-Acetyl-5-(2-methylpyrimidin-5-yl)-1H-indazol-1-yl)acetyl)-N-(4-chloro-1-(2,2,2-trifluoroethyl)-1H-pyrazol-3-yl)-4-fluoropyrrolidine-2-carboxamide] showed an IC50 of less than 1 µM.
Cc1cccc(NC(=O)[C@@H]2[C@H]3CC[C@H](C3)N2C(=O)Cn2cc(C(N)=O)c3cc(-c4cccnc4)ccc32)n1 [Compound 501, 1-(2-((1R,3S,4S)-3-(6-Methylpyridin-2-ylcarbamoyl)-2-azabicyclo[2.2.1]heptan-2-yl)-2-oxoethyl)-5-(pyridin-3-yl)-1H-indole-3-carboxamide] showed an IC50 greater than 10 µM.
For Cc1ncc(-c2ccc3c(c2)c(CC(N)=O)nn3CC(=O)N2C[C@H](F)C[C@H]2C(=O)Nc2cccc(Br)n2)cn1 [Compound 340, (2S,4R)-1-(2-(3-(2-amino-2-oxoethyl)-5-(2-methylpyrimidin-5-yl)-1H-indazol-1-yl)acetyl)-N-(6-bromopyridin-2-yl)-4-fluoropyrrolidine-2-carboxamide], the IC50 was 1 to 10 µM.
COc1cc(Br)nc(NC(=O)[C@@H]2C[C@@H](F)CN2C(=O)Cn2nc(C(C)=O)c3cc(-c4cnc(N)nc4)ccc32)c1 [Compound 432, (2S,4R)-1-(2-(3-Acetyl-5-(2-aminopyrimidin-5-yl)-1H-indazol-1-yl)acetyl)-N-(6-bromo-4-methoxypyridin-2-yl)-4-fluoropyrrolidine-2-carboxamide] showed an IC50 of less than 1 µM.
CC(=O)c1cn(CC(=O)N2C[C@H](F)C[C@H]2C(=O)NCCc2ccccc2)c2ccc(-c3cnc(C)nc3)cc12 [Compound 443, (2S,4R)-1-(2-(3-Acetyl-5-(2-methylpyrimidin-5-yl)-1H-indol-1-yl)acetyl)-4-fluoro-N-phenethylpyrrolidine-2-carboxamide] showed an IC50 of less than 1 µM.
In the case of CC(=O)c1nn(CC(=O)N2C[C@H](F)C[C@H]2C(=O)Nc2nc(Br)ccc2C)c2ccc(-c3cnc(N)nc3)cc12 [Compound 435, (2S,4R)-1-(2-(3-Acetyl-5-(2-aminopyrimidin-5-yl)-1H-indazol-1-yl)acetyl)-N-(6-bromo-3-methylpyridin-2-yl)-4-fluoropyrrolidine-2-carboxamide], the IC50 is reported as less than 1 µM.
COc1cc2c(cc1-c1cnc(C)nc1)c(C(C)=O)nn2CC(=O)N1C[C@H](F)C[C@H]1C(=O)Nc1cccc(Br)n1 [Compound 373, (2S,4R)-1-(2-(3-Acetyl-6-methoxy-5-(2-methylpyrimidin-5-yl)-1H-indazol-1-yl)acetyl)-N-(6-bromopyridin-2-yl)-4-fluoropyrrolidine-2-carboxamide] was tested, and the IC50 was less than 1 µM.
In the case of COC(=O)Cc1ncc(-c2ccc3c(c2)c(C(C)=O)nn3CC(=O)N2C[C@H](F)C[C@H]2C(=O)Nc2cccc(Br)n2)cn1 [Compound 529, methyl 2-(5-(3-acetyl-1-(2-((2S,4R)-2-((6-bromopyridin-2-yl)carbamoyl)-4-fluoropyrrolidin-1-yl)-2-oxoethyl)-1H-indazol-5-yl)pyrimidin-2-yl)acetate], the IC50 is reported as less than 1 µM.
For CC(=O)c1nn(CC(=O)N2C[C@@](F)(CF)C[C@H]2C(=O)Nc2cccc(Br)n2)c2ccc(-c3cnc(C)nc3)cc12 [Compound 415, (2S,4R)-1-(2-(3-Acetyl-5-(2-methylpyrimidin-5-yl)-1H-indazol-1-yl)acetyl)-N-(6-bromopyridin-2-yl)-4-fluoro-4-(fluoromethyl)pyrrolidine-2-carboxamide], the IC50 was less than 1 µM.
